In publication PMC9246869, “Allosteric inhibition of PPM1D serine/threonine phosphatase via an altered conformational state” (Nature Communications, 2022):
Where “and” joins values, the source holds several entries; their conditions need not be identical. Equal values may be shown once.

Key:
[1] = target: T1, PPM1D1–420 (Homo sapiens, UniProt O15297); test: p38 MAPK enzymatic assay (LC/MS, dephosphorylation of T180); format: biochemical; conditions: PPM1D1–420; full length p38 MAPK substrate, LC/MS
T1 construct: PPM1D1–420 was PCR-amplified from the synthesized gene with BsaI sites; His(6)-SUMO (N, cleaved yes); made in house; host or cells: E. coli BL21 (DE3)
T1 sequence (O15297 1-420): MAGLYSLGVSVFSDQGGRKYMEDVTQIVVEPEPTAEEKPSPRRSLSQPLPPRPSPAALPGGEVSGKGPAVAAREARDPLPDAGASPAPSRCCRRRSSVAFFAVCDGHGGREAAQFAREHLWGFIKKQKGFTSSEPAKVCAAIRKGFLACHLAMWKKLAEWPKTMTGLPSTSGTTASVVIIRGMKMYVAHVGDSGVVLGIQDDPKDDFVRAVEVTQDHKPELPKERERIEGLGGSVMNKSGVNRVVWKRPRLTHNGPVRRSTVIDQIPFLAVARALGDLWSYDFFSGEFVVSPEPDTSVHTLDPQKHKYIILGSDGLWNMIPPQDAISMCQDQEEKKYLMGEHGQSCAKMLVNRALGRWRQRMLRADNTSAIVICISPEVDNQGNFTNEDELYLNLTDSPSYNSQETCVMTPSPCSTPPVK
Procedure: To generate the double phosphorylated form of p38 MAPK for the LC/MS enzymatic PPM1D assay, 20 µM p38 MAPK was incubated with 100 nM MKK6 in 50 mM HEPES pH 7.4, 10 mM ATP, 40 mM MgCl2, and 100 µM TCEP at RT for 2 h. The reaction mixture was diluted 2-fold with 20 mM HEPES pH 7.4, 300 mM NaCl, 100 µM TCEP, and 1 mM MgCl2 and passed over a Superdex 200 26/600 column equilibrated with 20 mM HEPES pH 7.4, 150 mM NaCl, 100 µM TCEP, and 1 mM MgCl2 to remove excess ATP and MKK6 from the phosphorylated p38 MAPK (p38PP) protein. The protein was concentrated and stored in aliquots for single time usage at −80 °C.
The enzymatic activity of the PPM1D constructs was measured by quantifying the dephosphorylation of the substrate protein p38PP by LC/MS. Assays were run in 384-well plates (Axygen; #P-384-120SQ-C) in a final volume of 80 µL per well. The buffer consisted of 20 mM HEPES, 20 mM NaCl, 20 mM MgCl2 and 0.1 mM TCEP, at a pH of 7.5. The reaction was initiated by addition of the p38PP substrate to a solution containing 10 nM PPM1D to a final concentration of 300 nM for p38PP. The plate was then incubated at room temperature and the reaction quenched after 15 min increments with formic acid to a final concentration of 6% (v/v) up to 120 min. For IC50 measurements, the GSK2830371 compound was pre-incubated with the PPM1D constructs in a 2% DMSO-containing buffer for 10 min prior to the addition of the substrate and the reactions were quenched after 2 h. In both experiments, BSA was added to a final concentration of 0.2 µM during the quench step as a carrier protein and injection control for the LC/MS. The plate was then sealed and spun down at 1500 × g for 1 min prior to LC/MS analysis. Plates were analyzed within the same day of the quench step.
Substrate and product detection was achieved by multiple-reaction monitoring (MRM) using a Waters Acquity UPLC chromatography system connected to an Xevo TQ-XS mass spectrometer (Waters, Milford, MA). Source parameters were set as follows: polarity ES+, capillary 2.0 kV, cone voltage, 50 V; collision energy, 5 V; cone gas flow, 200 L/h; collision gas flow, 0.16 mL/min; source temperature, 150 °C; desolvation temperature, 500 °C; and desolvation gas flow, 800 L/h. Analytes were separated using an Agilent PLRP-S Reversed-Phase column (5 µm; 2.1 × 50 mm, 300 Å Agilent Technologies, Santa Clara, CA) at 60 °C. Sample storage temperature was set to 15 °C. Mobile phases consisted of 0.1% (v/v) formic acid (Millipore EMSURE) in LC/MS grade water (JTBaker) and 0.1% v/v formic acid in acetonitrile (Honeywell). Initial column conditions were set to […]. Proteins were eluted using a 1.5 min gradient of 5–98% acetonitrile at 0.4 ml/min. MassLynx and TargetLynx software (Waters, version 4.2) were used for sample acquisition and data analysis, respectively. Analytes were quantified by integration of peak areas under the curve using the transitions 941.10 to 941.05 m/z for P38PP (substrate) and 939.10 to 939.09 m/z for P38P (product). Areas were normalized for instrumental variation by dividing by the BSA peak area (1209.23 to 1209.2 m/z transition) measured in the same well.

[2] = target: T1, PPM1D1–420; test: Surface plasmon resonance (SPR); format: binding
Procedure: SPR was carried out on the Biacore S200 (GE Healthcare) using Series S sensor chip NTA (GE BR-1005-32). The preparation of the chip surface was conducted according to the manufacturer’s indications. The running buffer contained 50 mM Tris (pH 7.5), 50 mM NaCl, 1 mM MgCl2, 0.5 mM TCEP, 0.005% (v/v) P20 surfactant, and 2% DMSO. PPM1D1–420 and PPM1D∆Flap were run under single-cycle mode due to the slow-off-rate kinetics. The two proteins were immobilized on the chip surface in flow cells 2 and 3 with a signal of ~1500–2000 RU at a rate of 5 μL/min while flow cell 1 was left blank as a reference. The running buffer was injected three times followed by the GSK2830371 analyte in solution. Injections were carried out at a flow rate of 50 μL/min with the analyte in a concentration series of 5-point, 3-fold ending at 400 nM top dose. The association and dissociation phases were monitored for 90 s and 600 s, respectively. Collected data were evaluated using the Biacore S200 Evaluation Software under 1:1 binding mode. PPM1D∆Hinge was run under multi-cycle mode due to its fast-on/fast-off kinetics. The protein was immobilized to give a signal of ~ 3000 RU. GSK2830371 analyte in solution was injected at a flow rate of 90 μL/min in a 10-pt, 2-fold concentration series ending at 15 μM top dose. The association and dissociation phases were monitored for 45 s and 150 s, respectively. Since GSK2830371 had issues with solubility/aggregation at high concentrations that caused artifacts in sensorgrams, only steady-state analysis was performed to extract Kd.

[3] = Solubility; format: physicochemical
[4] = target: T1, PPM1D1–420; test: Isothermal titration calorimetry (ITC); format: binding; conditions: PPM1D1–420; 25 °C
Procedure: Assessments of the analog of GSK2830371 (analog 1d) binding to wild-type and mutant proteins were conducted using an Auto-iTC200 microcalorimeter (Malvern) (see section on synthesis of analog 1d below). The protein was dialyzed extensively into 25 mM HEPES (pH 7.4), 150 mM NaCl, 10 mM MgCl2 and 1 mM TCEP. The dialyzed protein was used to prepare fresh working solutions of protein (20 µM) and analog 1d (200 µM) in 2% DMSO (v/v) in the same buffer. Titrations were performed at 25 °C and consisted of a single initial injection of 0.4 µL, followed by 19 injections of 2 µL of compound into a sample cell containing wild-type or mutant PPM1D, with an interval of 150 s between successive injections. The reference power and stirring speed were set at […] and 1000 RPM, respectively. Heat of dilution and mixing were obtained from injections of analog 1d into ITC buffer lacking protein and subtracted from the integrated data before curve fitting. Thermodynamic data were analyzed using Origin 7.0 software and fitted by non-linear regression to the model for a single binding site.

IC50 [1]: 22.4 nM
Kd ([2]; PPM1D1–420, single-cycle kinetics for GSK2830371, read-out: Kd (SPR)): 2.7 nM
koff ([2]; SPR kinetics fit, Sup Fig 3B, read-out: koff): 0.0015 s⁻¹
kon ([2]; SPR kinetics fit, Sup Fig 3B, read-out: kon): 578000 M⁻¹ s⁻¹
Steady state curve response ([2]; SPR steady state, [1d] (nM) 4.94E-09): 2.128
solubility [3]: > 100 µM
Kd [4]: 10.9 nM and 10 nM
Compound: NCCCCNC(=O)[C@H](CC1CCCCC1)NC(=O)c1ccc(CNc2cc(Cl)ccn2)s1 [analog 1d]
